From US5294617A, “Angiotensin II receptor blocking 2,3,6 substituted quinazolinones” (American Cyanamid Company, priority 1993, dated 1994)

Biological target: T1, Angiotensin II Receptor (Bos taurus, UniProt P25104)
T1 construct: The brownish tissue forming the adrenal cortex is scraped off and finely minced with scissors before homogenization; tissue local slaughter house (Maxwell--Cohen); host or cells: beef adrenal cortex, microsomal membranes (100,000×g pellet)
T1 sequence (P25104 1-359): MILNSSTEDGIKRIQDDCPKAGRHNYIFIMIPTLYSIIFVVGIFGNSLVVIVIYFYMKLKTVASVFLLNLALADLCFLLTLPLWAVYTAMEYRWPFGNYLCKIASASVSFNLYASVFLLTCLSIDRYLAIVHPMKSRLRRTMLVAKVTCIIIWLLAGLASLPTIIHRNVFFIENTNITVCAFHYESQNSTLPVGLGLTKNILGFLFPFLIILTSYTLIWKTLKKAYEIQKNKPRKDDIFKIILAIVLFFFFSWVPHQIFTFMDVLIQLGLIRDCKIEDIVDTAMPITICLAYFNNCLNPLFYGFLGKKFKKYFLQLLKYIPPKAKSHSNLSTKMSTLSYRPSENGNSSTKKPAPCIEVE
Test: Receptor Binding Assay: binding of [125I](Sar1,Ile8)AngII to beef adrenal cortex membranes
Description: [^125 I](Sar^1,Ile^8)AngII, S.A. 2200 Ci/mmole, is purchased from Dupont (NEN®, Boston, Mass.). All unlabeled AngII analogs, Dimethylsulfoxide (DMSO), nucleotides, bovine serum albumin (BSA) are purchased from Sigma Chemical Co., St. Louis, Mo. U.S.A.
Approximately sixteen (16) to twenty (20) beef adrenal glands are processed as follows: fresh adrenal glands received on crushed ice are cleaned of fatty tissues and the tough membranes encapsulating the glands are removed and discarded. The brownish tissue forming the adrenal cortex is scraped off and finely minced with scissors before homogenization. Care is taken to avoid contamination with medullary tissue during dissection. The scraped cortices are suspended in twenty volumes of an ice-cold buffer medium consisting of 10 mM Tris.HCl (pH 7.4 at 22° C.) and containing 1.0 mM EDTA and 0.2M sucrose. Unless otherwise indicated, all subsequent operations are done at 4° C. […] The homogenate is centrifuged first at low speed (3,000×g) for 10 min. […] This P2 pellet is discarded and the liquid phase is carefully decanted off in clean centrifuge tubes and recentrifuged at high speed (100,000×g) for 60 min. The translucent final pellet is harvested and combined in a small volume (20-50.0 ml) of 50.0 mM Tris.HCl buffer, pH 7.2. […] The pelleted membrane is reconstituted in 50.0 mM Tris.HCl buffer containing 0.1 mM of phenylmethylsulfonyl fluoride (PMSF) to give approximately a protein concentration of 2.5 mg per ml of tissue suspension. The membrane preparation is finally aliquoted in 1.0 ml volumes and stored at -70° C. until use in the binding assays.
In competition studies, experimental compounds are diluted in dimethylsulfoxide (DMSO) and added in 20 ul to wells before the introduction of tissue membranes. […] Assays are performed in triplicate. The wells are left undisturbed for 60 min. at room temperature. […] The filters are removed from the filter grid and counted in a Parkard® Cobra Gamma Counter for 1 min. […] The binding data are analyzed by the non-linear interactive "LUNDON-1" program (LUNDON SOFTWARE Inc., Cleveland, Ohio U.S.A.).

Compound	IC50 [µM]
CCCCc1nc2ccc([C@@H]3C[C@H](CO)ON3C)cc2c(=O)n1Cc1ccc(-c2ccccc2-c2nn[nH]n2)cc1 (relative stereo) [Example 15, CIS-2-butyl-6-5-(hydroxymethyl)-2-methyl-3-isoxazolidinyl]-3-[[2'-(1H-tetrazol-5[1,1'-biphenyl]-4-yl]methyl]-4(3H)-quinazolinone]	0.043
CCCCc1nc2ccc([C@H]3C[C@H](CO)ON3C)cc2c(=O)n1Cc1ccc(-c2ccccc2-c2nnn[nH]2)cc1 (relative stereo) [Example 16, TRANS-2-butyl-6-[5-(hydroxymethyl)-2-methyl-3-isoxazolidinyl]-3-[[2'-(1H-tetrazol-5-yl)[1,1'-biphenyl]-4-yl]methyl]-4(3H)-quinazolinone]	0.061
